The record followed here is patent US6455472B1, “Phenyl-substituted cyclic enaminones” (Bayer Aktiengesellschaft, priority 1998, dated 2002).

In the first data set the test system is caterpillars of the army worm (Spodoptera frugiperda). The data set can be described thus: Spodoptera frugiperda test. The format is in vivo. The conditions noted are these: cabbage leaves (Brassica oleracea) dipped into preparation of active compound; concentration and time not stated. The method, then:
Solvent: 7 parts by weight of dimethylformamide
Emulsifier:: 1 part by weight of alkylaryl polyglycol ether
To produce a suitable preparation of active compound, 1 part by weight of active compound is mixed with the stated amounts of solvent and emulsifier, and the concentrate is diluted with water to the desired concentration.
Cabbage leaves (Brassica oleracea) are treated by being dipped into the preparation of active compound of the desired concentration and are populated with caterpillars of the army worm (Spodoptera frugiperda) while the leaves are still moist.
After the desired period of time, the kill in % is determined. 100% means that all caterpillars have been killed; 0% means that none of the caterpillars have been killed.
For the compound `N#CC(C(=O)c1ccc(Cl)cc1)=C1CCCN1Cc1ccc(Cl)nc1` [Preparation Example 3, 3-(4-chlorophenyl)-2-[1-(6-chloropyridin-3-yl-methyl)-pyrrolidin-2-yli-dene]-3-oxo-propionitrile], the “activity (kill in %) against Spodoptera frugiperda caterpillars” value is given as “good activity”.

The next data set deals with weeds. Description: Pre-emergence test, weeds. The data set is classed as in vivo. The note with it: soil watered 24 hours after sowing, assessed after three weeks, application rate not stated. The protocol: (§1) Solvent: 5 parts by weight of acetone
(§2) Emulsifier: 1 part by weight of alkylaryl polyglycol ether
(§3) To produce a suitable preparation of active compound, 1 part by weight of active compound is mixed with the stated amount of solvent, the stated amount of emulsifier is added and the concentrate is diluted with water to the desired concentration.
Seeds of the test plants are sown in normal soil and, after 24 hours, watered with the preparation of active compound. The amount of water per unit area is advantageously kept constant. The concentration of active compound in the preparation is immaterial, only the active compound application rate per unit area matters. After three weeks, the degree of damage to the plants is assessed in % damage in comparison with the development of the untreated control.
With `N#C/C(C(=O)c1ccc(-c2ccc(Cl)cc2)cc1)=C1\CCCCN1` [I-1-a-54, 3-(4′-chloro-biphenyl-4-yl)-3-oxo-2-piperidin-2-ylidene-propionitrile], the “activity against weeds (% damage)” value is reported as “strong activity”.

Tested on in the next data set: not given
Assay: not given
Conditions: not given
Take `N#C/C(C(=O)c1ccc(Cl)cc1)=C1\CCCN1` [Example 1, 3-(4-chlorophenyl)-3-oxo-2-pyrrolidin-2-ylidene-propionitrile]: the melting point was in the range of 156 to 158 °C.

`N#C/C(C(=O)c1ccc(Cl)cc1)=C1\CCCN1C(=O)c1ccc(Cl)cc1` [Example 5, 2-[1-(4-chlorobenzoyl)pyrrolidin-2-ylidene]-3-(4-chlorophenyl)-3-oxo-propionitrile] gave a melting point of 218 °C.

Compound `CCOC(=O)C1CC/C(=C(\C#N)C(=O)c2ccc(Cl)cc2)N1` (centres unmarked) [Example 7, ethyl 5-[2-(4-chloro-phenyl)-1-cyano-2-oxo-ethylidene]-pyrrolidine-2-carboxylate] returned a melting point of 108 to 110 °C.

The compound `N#C/C(C(=O)c1ccc(Cl)cc1)=C1\CCC(C(=O)O)N1` (centres unmarked) [Example 8, 5-[2-(4-chloro-phenyl)-1-cyano-2-oxo-ethylidene]-pyrrolidine-2-carboxylic acid] returned a melting point of 134 to 136 °C.

Compound `N#C/C(C(=O)c1ccc(-c2ccc(Cl)cc2)cc1)=C1\CCCCN1` [I-1-a-54, 3-(4′-chloro-biphenyl-4-yl)-3-oxo-2-piperidin-2-ylidene-propionitrile] showed a melting point of 134 °C.

On to `CN1CCC/C1=C(\C#N)C(=O)c1ccc(Cl)cc1` [I-1-a-110, 3-(4-chloro-phenyl)-3-oxo-2-(1-methyl-pyrrolidin-2-ylidene)-propionitrile], for which the melting point was found to be 115 °C.

`N#C/C(C(=O)c1ccc(NS(=O)(=O)C(F)(F)F)cc1)=C1\CCCCN1` [I-1-a-138, 3-[4-(trifluoromethanesulphonylamino)-phenyl]-3-oxo-2-piperidin-2-ylidene-propionitrile] yielded a melting point of 197 °C.

Regarding `N#C/C(C(=S)c1ccc(Cl)cc1)=C1\CCCCN1` [I-1-a-151, 3-(4-chloro-phenyl)-3-thio-2-piperidin-2-ylidene-propionitrile], the melting point was determined as 137 °C.

In turn, `CCOC(=O)C1CC/C(=C(\C#N)C(=O)c2ccccc2Cl)N1` (stereo not drawn) [I-1-d-4] showed a melting point of 222 to 224 °C.

`COC(=O)CSc1ccc(C(=O)/C(C#N)=C2/CCCCN2)cn1` [I-2-a-6] came in with a melting point of 146 °C.

Compound `N#C/C(C(=O)c1ccc(SCC(=O)O)nc1)=C1\CCCCN1` [I-2-a-7] displayed a melting point of 155 °C.

The next data set has as its system weeds. Description: Post emergence test, weeds. The format is in vivo. The conditions noted are these: sprayed, assessed after 3 weeks, application rate not stated. The protocol:
as §1, §2, §3
Test plants which have a height of 5 to 15 cm are sprayed with the preparation of active compound such that the particular desired amounts of active compound are applied per unit area. After 3 weeks, the degree of damage to the plants is assessed in % damage in comparison to the development of the untreated controls.
Consider `N#C/C(C(=O)c1ccc(-c2ccc(Cl)cc2)cc1)=C1\CCCCN1` [I-1-a-54, 3-(4′-chloro-biphenyl-4-yl)-3-oxo-2-piperidin-2-ylidene-propionitrile], for which the “activity against weeds (% damage)” value is given as “strong activity”.

The melting point is the temperature of the solid-liquid transition.
